Counter-ions that a name gives are not always drawn. Like-named read-outs stand apart in the source and are kept apart here.

For this assay, the target named is T1, AhR (Homo sapiens, UniProt P35869).
T1 construct: host or cells: HepG2
T1 sequence (P35869 11-848): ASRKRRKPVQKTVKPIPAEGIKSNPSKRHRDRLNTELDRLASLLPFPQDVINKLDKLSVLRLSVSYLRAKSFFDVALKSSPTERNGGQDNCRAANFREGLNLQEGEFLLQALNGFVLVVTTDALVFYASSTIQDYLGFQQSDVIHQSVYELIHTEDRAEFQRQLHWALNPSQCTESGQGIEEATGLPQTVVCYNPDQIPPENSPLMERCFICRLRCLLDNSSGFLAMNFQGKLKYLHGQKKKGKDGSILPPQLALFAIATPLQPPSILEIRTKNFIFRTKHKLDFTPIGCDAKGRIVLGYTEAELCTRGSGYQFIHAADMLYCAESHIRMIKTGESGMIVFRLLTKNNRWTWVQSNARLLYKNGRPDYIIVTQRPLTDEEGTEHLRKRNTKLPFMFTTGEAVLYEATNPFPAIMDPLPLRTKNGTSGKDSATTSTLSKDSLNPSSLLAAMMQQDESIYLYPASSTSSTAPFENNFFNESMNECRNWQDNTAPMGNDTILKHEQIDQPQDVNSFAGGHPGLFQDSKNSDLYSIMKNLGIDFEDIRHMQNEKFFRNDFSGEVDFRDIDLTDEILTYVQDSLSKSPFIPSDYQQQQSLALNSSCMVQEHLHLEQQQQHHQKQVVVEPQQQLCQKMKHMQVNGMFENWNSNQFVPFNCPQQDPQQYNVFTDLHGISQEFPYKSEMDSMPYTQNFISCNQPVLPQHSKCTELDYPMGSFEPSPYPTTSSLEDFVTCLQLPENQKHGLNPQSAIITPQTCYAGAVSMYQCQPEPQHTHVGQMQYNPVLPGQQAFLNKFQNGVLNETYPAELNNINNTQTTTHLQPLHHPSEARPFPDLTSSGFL
The experiment in a line: In vitro assay 1: XRE-luciferase reporter assay, antagonism in human cell line (HepG2). It is filed as cell-based. To be noted: HepG2 XRE-luciferase, 6 hours, read-out: Assay 1: AhR-Luc Human Antagonism (IC50). The source says: In Vitro XRE-Luciferase Reporter Assay (In Vitro Assay 1, 2, 3)
AhR activation leads the induction of target gene expression such as CYP1A1 and CYP1B1 by AhR binding to AhR-responsive DNA elements also known as xenobiotics responsive elements (XRE). The assay for measuring AhR activity herein is the luciferase assay using cell lines transfected with luciferase reporter plasmid containing XREs at the upstream of the reporter gene. Cells transfected with XRE-luciferase reporter (XRE-Luc) plasmid drive luciferase activity reflecting activation and inhibition of AhR in the cells. In addition to transfection with XRE-reporter vector, cells were co-transfected with Nano-luciferase reporter gene construct (Nano-Luc) containing constitutively active promoter as internal control. Kynurenine (an endogenous AhR agonist) was used to stimulate cells to test antagonistic properties of the compounds. The half-maximal inhibitory concentration (IC50) or half-maximal effective concentration (EC50) value was calculated using nonlinear regression (four parameters) with Prism8.0 software (GraphPad).
In Vitro Assay 1: Antagonism in Human Cell Line
HepG2 (human hepatoma cell line) cell line with a XRE-luciferase reporter either transiently or stably (Invivogen) were plated in complete medium and incubated at 37° C. in a CO2 incubator. After 24 hours, cells were treated with kynurenine (50* or 200 μM) alone (negative control) or with test compounds for 6 hours. Luciferase activity was measured with a commercial kit such as the Promega Luciferase kit or other reagents for measuring luciferase activity. Relative luciferase activity (Firefly/Nano-Luc) was used to calculate IC50 values. The relative luciferase activity was further normalized with kynurenine alone group as the maximum control and the vehicle group as the minimum control. (IC50 values are grouped as A, B, C and D, whereby A: IC50<0.01 μM; B: 0.01<IC50<0.1 μM; C: 0.1<IC50<1.0 μM; D: IC50>1.0 μM)

[1] abbreviates: cells treated with kynurenine 50 μM (*).
Where [2] appears, read: cells treated with kynurenine 200 μM (no *).

Broadly, the IC50 is the point on the concentration scale where inhibition reaches its midpoint. As for `CCC(CO)n1cnc2c(-c3cccnc3)nc(-c3ccc(C(F)(F)F)cc3)cc2c1=O` (stereo not shown) [Example 53, 3-(1-hydroxybutan-2-yl)-8-(pyridin-3-yl)-6-(4-(trifluoromethyl)phenyl)pyrido[3,4-d]pyrimidin-4(3H)-one], the IC50 under setting [1] was over 1000 nM.

Consider `CC(C(=O)O)n1cnc2c(-c3cccnc3)nc(-c3ccc(C(F)(F)F)cc3)cc2c1=O` (stereo not shown) [Example 84, 2-(4-oxo-8-(pyridin-3-yl)-6-(4-(trifluoromethyl)phenyl)pyrido[3,4-d]pyrimidin-3(4H)-yl)propanoic acid, 2,2,2-trifluoroacetic acid salt], for which the IC50 under setting [2] fell in the range of 100 to 1000 nM.

On to `Cn1cc(-c2nc(-c3ccc(Cl)cc3)cc3c(=O)n([C@H]4CC[C@@H](O)C4)cnc23)cn1` [Example 34, 6-(4-chlorophenyl)-3-((1S,3R)-3-hydroxycyclopentyl)-8-(1-methyl-1H-pyrazol-4-yl)pyrido[3,4-d]pyrimidin-4(3H)-one], for which the IC50 under setting [2] is under 10 nM.

On to `O=c1c2cc(-c3ccc(Cl)cc3)nc(-c3cccnc3)c2ncn1[C@@H]1CCCC[C@@H]1O` [Example 19], for which the IC50 under setting [2] is under 10 nM.

For the molecule `CC(CNS(C)(=O)=O)n1cnc2c(-c3cccnc3)nc(-c3ccc(N4CCOCC4)cc3)cc2c1=O` (stereo not shown) [Example 91, N-(2-(6-(4-morpholinophenyl)-4-oxo-8-(pyridin-3-yl)pyrido[3,4-d]pyrimidin-3(4H)-yl)propyl)methanesulfonamide], the IC50 under setting [2] was under 10 nM.

On to `O=c1c2cc(-c3ccc(Cl)cc3)nc(-c3cccnc3)c2ncn1[C@H]1CC[C@@H](O)C1` [Example 32, 6-(4-chlorophenyl)-3-((1S,3R)-3-hydroxycyclopentyl)-8-(pyridin-3-yl)pyrido[3,4-d]pyrimidin-4(3H)-one], for which the IC50 under setting [2] is under 10 nM.

`CC(O)Cn1cnc2c(-c3cnn(C)c3)nc(-c3ccc(Cl)cc3)cc2c1=O` (stereo not shown) [Example 13, 6-(4-chlorophenyl)-3-(2-hydroxypropyl)-8-(1-methyl-1H-pyrazol-4-yl)pyrido[3,4-d]pyrimidin-4(3H)-one]: under setting [1], the IC50 was under 10 nM.

Regarding `CC(CO)N1CNc2c(cc(-c3ccc(Cl)cc3)nc2-c2cccnc2)C1=O` (stereo not shown) [Example 60], under setting [2], the IC50 lay in the range of 10 to 100 nM.

With `O=c1c2cc(-c3ccc(C(F)(F)F)cc3)nc(-c3cccnc3)c2ncn1C1CCNCC1` [Example 93, 3-(piperidin-4-yl)-8-(pyridin-3-yl)-6-(4-(trifluoromethyl)phenyl)pyrido[3,4-d]pyrimidin-4(3H)-one], the IC50 under setting [2] is under 10 nM.

In the case of `CC(C)C(CO)n1cnc2c(-c3cccnc3)nc(-c3ccc(Cl)cc3)cc2c1=O` (stereo not shown) [Example 41, 6-(4-chlorophenyl)-3-(1-hydroxy-3-methylbutan-2-yl)-8-(pyridin-3-yl)pyrido[3,4-d]pyrimidin-4(3H)-one], the concentration for half-maximal inhibition (IC50) under setting [2] was over 1000 nM.

For the molecule `CC(C)C(CO)n1cnc2c(-c3cccnc3)nc(-c3ccc(C(F)(F)F)cc3)cc2c1=O` (stereo not shown) [Example 42, 3-(1-hydroxy-3-methylbutan-2-yl)-8-(pyridin-3-yl)-6-(4-(trifluoromethyl)phenyl)pyrido[3,4-d]pyrimidin-4(3H)-one], the IC50 under setting [2] is over 1000 nM.

Take `Cn1cc(-c2nc(-c3ccc(C(F)(F)F)cc3)cc3c(=O)n(-c4cccc(O)c4)cnc23)cn1` [Example 27, 3-(3-hydroxyphenyl)-8-(1-methyl-1H-pyrazol-4-yl)-6-(4-(trifluoromethyl)phenyl)pyrido[3,4-d]pyrimidin-4(3H)-one]: the IC50 under setting [2] was under 10 nM.

Take `O=c1c2cc(-c3ccc(C(F)(F)F)cc3)nc(-c3cccnc3)c2ncn1[C@@H]1CC[C@H](O)C1` [Example 29, 3-((1R,3S)-3-hydroxycyclopentyl)-8-(pyridin-3-yl)-6-(4-(trifluoromethyl)phenyl)pyrido[3,4-d]pyrimidin-4(3H)-one]: the IC50 under setting [2] was under 10 nM.

`CC(=O)OC(C)(C)Cn1cnc2c(-c3cccnc3)nc(-c3ccc(Cl)cc3)cc2c1=O` [Example 36, 1-(6-(4-chlorophenyl)-4-oxo-8-(pyridin-3-yl)pyrido[3,4-d]pyrimidin-3(4H)-yl)-2-methylpropan-2-yl acetate]: the IC50 under setting [2] is 10 to 100 nM.

As for `Cn1cc(-c2nc(-c3ccc(C(F)(F)F)cc3)cc3c(=O)n([C@H]4CC[C@@H](O)C4)cnc23)cn1` [Example 35, 3-((1S,3R)-3-hydroxycyclopentyl)-8-(1-methyl-1H-pyrazol-4-yl)-6-(4-(trifluoromethyl)phenyl)pyrido[3,4-d]pyrimidin-4(3H)-one], under setting [2], the IC50 is under 10 nM.

Turning to `CCC(CO)n1cnc2c(-c3cnn(C)c3)nc(-c3ccc(C(F)(F)F)cc3)cc2c1=O` (stereo not shown) [Example 54, 3-(1-hydroxybutan-2-yl)-8-(1-methyl-1H-pyrazol-4-yl)-6-(4-(trifluoromethyl)phenyl)pyrido[3,4-d]pyrimidin-4(3H)-one], under setting [1], the IC50 was over 1000 nM.

Consider `Cn1cc(-c2nc(-c3ccc(C(F)(F)F)cc3)cc3c(=O)n([C@@H]4CCCC[C@@H]4O)cnc23)cn1` [Example 18, 3-((1R,2S)-2-hydroxycyclohexyl)-8-(1-methyl-1H-pyrazol-4-yl)-6-(4-(trifluoromethyl)phenyl)pyrido[3,4-d]pyrimidin-4(3H)-one], for which the IC50 under setting [2] is under 10 nM.

Consider `O=c1c2cc(-c3ccc(C(F)(F)F)cc3)nc(-c3cccnc3)c2ncn1[C@H]1CC[C@@H](O)C1` [Example 33, 3-((1S,3R)-3-hydroxycyclopentyl)-8-(pyridin-3-yl)-6-(4-(trifluoromethyl)phenyl)pyrido[3,4-d]pyrimidin-4(3H)-one], for which, under setting [2], the IC50 is under 10 nM.

On to `CC(=O)NCC(C)n1cnc2c(-c3cccnc3)nc(-c3ccc(N4CCOCC4)cc3)cc2c1=O` (stereo not shown) [Example 92, N-(2-(6-(4-morpholinophenyl)-4-oxo-8-(pyridin-3-yl)pyrido[3,4-d]pyrimidin-3(4H)-yl)propyl)acetamide], for which the IC50 under setting [2] fell in the range of 10 to 100 nM.

As to `O=c1c2cc(-c3ccc(C(F)(F)F)cc3)nc(-c3cccnc3)c2ncn1-c1cccc(O)c1` [Example 62, 3-(3-hydroxyphenyl)-8-(pyridin-3-yl)-6-(4-(trifluoromethyl)phenyl)pyrido[3,4-d]pyrimidin-4(3H)-one], the IC50 under setting [2] is under 10 nM.

`CC(O)Cn1cnc2c(-c3cnn(C)c3)nc(-c3cnn(C)c3)cc2c1=O` (stereo not shown) [Example 11, 3-(2-hydroxypropyl)-6,8-bis(1-methyl-1H-pyrazol-4-yl)pyrido[3,4-d]pyrimidin-4(3H)-one]: the IC50 under setting [1] is 100 to 1000 nM.

Turning to `CC(O)Cn1cnc2c(-c3cnn(C)c3)nc(-c3ccc(C(F)(F)F)cc3)cc2c1=O` (stereo not shown) [Example 12, 3-(2-hydroxypropyl)-8-(1-methyl-1H-pyrazol-4-yl)-6-(4-(trifluoromethyl)phenyl)pyrido[3,4-d]pyrimidin-4(3H)-one], under setting [1], the IC50 is under 10 nM.

With `O=c1c2cc(-c3ccc(Cl)cc3)nc(-c3cccnc3)c2ncn1C(CO)CO` [Example 70, 6-(4-chlorophenyl)-3-(1,3-dihydroxypropan-2-yl)-8-(pyridin-3-yl)pyrido[3,4-d]pyrimidin-4(3H)-one], the IC50 under setting [2] was under 10 nM.

As to `Cn1cc(-c2nc(-c3ccc(C(F)(F)F)cc3)cc3c(=O)n([C@@H]4CC[C@H](O)C4)cnc23)cn1` [Example 31, 3-((1R,3S)-3-hydroxycyclopentyl)-8-(1-methyl-1H-pyrazol-4-yl)-6-(4-(trifluoromethyl)phenyl)pyrido[3,4-d]pyrimidin-4(3H)-one], the IC50 under setting [2] was under 10 nM.

On to `Cn1cc(-c2nc(-c3ccc(C(F)(F)F)cc3)cc3c(=O)n(CC(O)C(F)(F)F)cnc23)cn1` (stereo not shown) [Example 22, 8-(1-methyl-1H-pyrazol-4-yl)-3-(3,3,3-trifluoro-2-hydroxypropyl)-6-(4-(trifluoromethyl)phenyl)pyrido[3,4-d]pyrimidin-4(3H)-one], for which the IC50 under setting [2] was under 10 nM.

Source of the values: patent US20230147257A1 (DONG-A ST CO., LTD., priority 2020, published 2023).
